Measured values: ChEMBL document CHEMBL1201862, “PubChem BioAssay data set” (2004)
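Cultured in 96-well plates, cells were exposed to test compound for 48 hours across five concentrations. GI50 marks 50% less growth.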 Active and inactive are the calls of the source. No stated cut-off is given here; in the data, active = GI50 up to about 1.1 µM and inactive = higher.

Assays:
Test in all cases: DTP human tumour cell line panel, 48 h
786-0 = system: 786-0
A549 = system: A549
DU-145 = system: DU-145
HCC 2998 = system: HCC 2998
HCT-15 = system: HCT-15
HL-60 = system: HL-60
HT-29 = system: HT-29
KM12 = system: KM12
M14 = system: M14
MCF7 = system: MCF7
MDA-MB-435 = system: MDA-MB-435
MDA-N = system: MDA-N
Malme-3M = system: Malme-3M
NCI-H522 = system: NCI-H522
SF-295 = system: SF-295
SK-MEL-2 = system: SK-MEL-2
SNB-75 = system: SNB-75
SR = system: SR
U-251 = system: U-251
UACC-257 = system: UACC-257

| SMILES | GI50 (786-0) | GI50 (A549) | GI50 (DU-145) | GI50 (HCC 2998) | GI50 (HCT-15) | GI50 (HL-60) | GI50 (HT-29) | GI50 (KM12) | GI50 (M14) | GI50 (MCF7) | GI50 (MDA-MB-435) | GI50 (MDA-N) | GI50 (Malme-3M) | GI50 (NCI-H522) | GI50 (SF-295) | GI50 (SK-MEL-2) | GI50 (SNB-75) | GI50 (SR) | GI50 (U-251) | GI50 (UACC-257) |
| --- | --- | --- | --- | --- | --- | --- | --- | --- | --- | --- | --- | --- | --- | --- | --- | --- | --- | --- | --- | --- |
| CC(Oc1ccc(Cl)cc1Cl)C(=O)NN1C(=O)CC(=O)NC1=S (stereo not given) | > 100 µM (inactive) | > 100 µM (inactive) | > 100 µM (inactive) | > 100 µM (inactive) | 86.9 µM | 30.9 µM (inactive) | > 100 µM (inactive) | > 100 µM (inactive) | > 100 µM (inactive) | 76.7 µM (inactive) | > 100 µM (inactive) | > 100 µM (inactive) | > 100 µM (inactive) | > 100 µM (inactive) | > 100 µM (inactive) | 80.5 µM (inactive) | > 100 µM (inactive) | > 100 µM (inactive) | > 100 µM (inactive) | > 100 µM (inactive) |
| Brc1cccc(/C=C/CN2CCN(CCOC(c3ccccc3)c3ccccc3)CC2)c1 | 15.7 µM (inactive) | 15.5 µM (inactive) | 13.6 µM (inactive) | 8.53 µM (inactive) | 15.6 µM | 7.45 µM (inactive) | 6.22 µM (inactive) | 14.8 µM (inactive) | 13.2 µM (inactive) | 14.5 µM (inactive) | 12.6 µM (inactive) | 16.7 µM (inactive) | 16.1 µM (inactive) | 14.4 µM (inactive) | 17.6 µM (inactive) | 17.8 µM (inactive) | 6.08 µM (inactive) | 9.02 µM (inactive) | 13.6 µM (inactive) | 17.9 µM (inactive) |
| COc1cc(/C=[N+](\[O-])c2ccccc2Cl)ccc1OC(=S)S | 50.4 µM (inactive) | 39.8 µM (inactive) | 72.1 µM (inactive) | 37 µM (inactive) | 33.2 µM | 20.1 µM (inactive) | 42.5 µM (inactive) | 15.1 µM (inactive) | 30.9 µM (inactive) | 27.6 µM (inactive) | 20.8 µM (inactive) | 29 µM (inactive) | 38.4 µM (inactive) | 26.5 µM (inactive) | 30.3 µM (inactive) | 32.5 µM (inactive) | 18 µM (inactive) | 26.1 µM (inactive) | 38.5 µM (inactive) | 26.4 µM (inactive) |
| CCC[C@H](C)[C@H]1NC(=O)[C@@H](NC(=O)[C@@H](CC(C)C)N(C)C(=O)C2CCCN2C(=O)[C@H](C)O)[C@@H](C)OC(=O)[C@H](CC(C)C)N(C)C(=O)[C@@H]2CCCN2C(=O)[C@H](CC(C)C)NC(=O)[C@@H](C)C(=O)[C@H](C(C)C)OC(=O)C[C@@H]1O (stereo not given in full) | < 0.0025 µM (active) | < 0.0025 µM (active) | < 0.0025 µM (active) | < 0.0025 µM (active) | 0.0328 µM | < 0.0025 µM (active) | < 0.0025 µM (active) | < 0.0025 µM (active) | < 0.0025 µM (active) | < 0.0025 µM (active) | < 0.0025 µM (active) | < 0.0025 µM (active) | < 0.0025 µM (active) | < 0.0025 µM (active) | < 0.0025 µM (active) | < 0.0025 µM (active) | < 0.0025 µM (active) | < 0.0025 µM (active) | < 0.0025 µM (active) | < 0.0025 µM (active) |
| Nc1ccc(C(=O)O)cc1 [AMINOBENZOIC ACID] | > 100 µM (inactive) | > 100 µM (inactive) | > 100 µM (inactive) | > 100 µM (inactive) | 21.1 µM | > 100 µM (inactive) | > 100 µM (inactive) | > 100 µM (inactive) | > 100 µM (inactive) | > 100 µM (inactive) | > 100 µM (inactive) | > 100 µM (inactive) | > 100 µM (inactive) | > 100 µM (inactive) | > 100 µM (inactive) | > 100 µM (inactive) | > 100 µM (inactive) | > 100 µM (inactive) | > 100 µM (inactive) | > 100 µM (inactive) |
